Data taken from ChEMBL document CHEMBL1129134, “DNA threading agents: effect of sidechain bulk on DNA binding and cytotoxicity of 9-anilinoacridine-4-carboxamides” (Bioorg Med Chem Lett, 1996).

What follows are molecules tested on HT-29 (assay: Compound was tested for biological activity against human colon carcinoma cell line HT-29/219).
Type: functional, cell-based

IC50 [µM] | Structure (SMILES)
5.8 | COc1cc(NS(C)(=O)=O)ccc1Nc1c2ccccc2nc2c(C(=O)NC3CCCCCCC3)cccc12
5.2 | Nc1c2ccccc2nc2c(C(=O)NC3CCCCCCC3)cccc12
0.57 | Nc1c2ccccc2nc2c(C(=O)NC34C[C@H]5C[C@@H](C3)C[C@@H](C4)C5)cccc12
0.14 | CN(C)CCNC(=O)c1cccc2c(N)c3ccccc3nc12
5.8 | Nc1c2ccccc2nc2c(C(=O)NC3CC3)cccc12
3.6 | COc1cc(NS(C)(=O)=O)ccc1Nc1c2ccccc2nc2c(C(=O)NC3CC3)cccc12
9.8 | COc1cc(NS(C)(=O)=O)ccc1Nc1c2ccccc2nc2c(C(=O)NC34C[C@H]5C[C@@H](C3)C[C@@H](C4)C5)cccc12
0.061 | COc1cc(NS(C)(=O)=O)ccc1Nc1c2ccccc2nc2c(C(=O)NCCN(C)C)cccc12
3.3 | COc1cc(NS(C)(=O)=O)ccc1Nc1c2ccccc2nc2c(C(=O)NC3CCCCCCCCCCC3)cccc12
7.7 | Nc1c2ccccc2nc2c(C(=O)NC3CCCCCCCCCCC3)cccc12
5.6 | Nc1c2ccccc2nc2c(C(=O)NC3CCCCC3)cccc12
4.7 | COc1cc(NS(C)(=O)=O)ccc1Nc1c2ccccc2nc2c(C(=O)NC3CCCCC3)cccc12
